Reference: PMC9405102, “Targeted Modification and Structure-Activity Study of GL-29, an Analogue of the Antimicrobial Peptide Palustrin-2ISb” (Antibiotics, 2022)
In brackets after ≈: the same amount, converted by molar mass. Where a SMILES comes first, the peptide text is derived from it. Where no end group is shown, it is not given here.

Legend:
[1] = tested on: Escherichia coli (E. coli); set-up: method as in PMID 21911019; conditions: cited from earlier work
[2] = tested on: methicillin-resistant S. aureus (MRSA); set-up: method as in PMID 21911019; conditions: cited from earlier work
C. albicans = tested on: C. albicans; set-up: method as in PMID 21911019; conditions: C. albicans; cited from earlier work
[3] = tested on: Galleria mellonella larvae (waxworms); assay: Toxicity of peptide in larvae in vivo; conditions: uninfected larvae
Description: In this assay, Galleria mellonella larvae (waxworms) (Livefood UK Ltd., Rooks Bridge, UK) were used as an infection model to investigate the antimicrobial potency of peptides against S. aureus, which was described in a previous study in detail (Yuan et al., 2019). The larvae, weights between 225 mg and 275 mg, were selected, and nine larvae were stored in a separate Petri dish as a group and they were divided into several groups. Then, 10 µL of the peptide solution at final concentrations of 8 µM and 16 µM, respectively, and 10 µL of PBS were injected into larvae to test the toxicity of peptides and PBS solution. Afterwards, 10 μL of the bacterial suspension in PBS (5 × 10^7 CFU/mL) were injected into larvae. All the infected larvae were ensured to be alive after 2 h of the injection, followed by the treatment with 10 μL of the peptide solution to reach final concentrations of 2, 4 and 8 μM, respectively. The negative control was treated with the same volume of PBS, and the positive control was dosed with the same volume of 20 mg/kg vancomycin (Sigma-Aldrich, UK). The number of living larvae was counted every 24 h for 5 days, except the first day of 12 h.

Molecule: CC[C@H](C)[C@H](NC(=O)[C@H](CCCCN)NC(=O)[C@@H](NC(=O)[C@H](CO)NC(=O)[C@H](CC(N)=O)NC(=O)[C@H](Cc1c[nH]c2ccccc12)NC(=O)[C@H](CC(C)C)NC(=O)CN)[C@@H](C)CC)C(=O)N[C@@H](C)C(=O)NCC(=O)N[C@@H](CCCCN)C(=O)N[C@@H](CCCCN)C(=O)N[C@@H](CC(C)C)C(=O)N[C@@H](Cc1ccccc1)C(=O)N[C@H](C(=O)N[C@@H](CC(N)=O)C(=O)N[C@H](C(=O)N[C@@H](CC(C)C)C(=O)N[C@@H](CC(=O)O)C(=O)N[C@@H](CCCCN)C(=O)N[C@H](C(=O)N[C@@H](CCCNC(=N)N)C(=O)N[C@H]1CSSC[C@@H](C(=O)O)NC(=O)CNC(=O)CNC(=O)[C@H](C)NC(=O)[C@H](C(C)C)NC(=O)[C@H](CCCCN)NC1=O)[C@@H](C)CC)C(C)C)C(C)C [GL-29] (HELM PEPTIDE1{G.L.W.N.S.I.K.I.A.G.K.K.L.F.V.N.V.L.D.K.I.R.C.K.V.A.G.G.C}$PEPTIDE1,PEPTIDE1,23:R3-29:R3$$$V2.0; N-terminus and C-terminus assumed; bridges inferred)
- MIC [1]: 1.6 µM (≈ 5.01 µg/mL)
- MIC [2]: 12.5 µM (≈ 39.1 µg/mL)
- MIC (C. albicans): 100 µM (≈ 313 µg/mL)

Molecule: GLWNSIKIAGKKLFVNVLDKIR-NH2 [GL-22]
- toxicity against larvae ([3]; 2 × MIC (20 mg/kg)): no toxicity
- toxicity against larvae ([3]; 4 × MIC (40 mg/kg)): high toxicity
